Reference: patent publication US10913727B2, “Modulators of the integrated stress pathway” (Calico Life Sciences LLC, priority 2016, dated 2021)

system: HEK293T cells carrying the ATF4 luciferase reporter; test: ATF4-Luc assay, in vitro model of Vanishing Cell White Matter Disease (VWMD); assay type: cell-based; conditions: Homo sapiens, HEK-293T, 1 μg/mL tunicamycin, 7 hours, One Glo luminescence
How it was run: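 Compound at 200 nM and tunicamycin at 1 μg/mL were given together for 7 h to HEK293T cells stably transduced with an ATF4 5′-UTR-driven firefly luciferase reporter. Read-out by luminescence, reported as EC50.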

SMILES | EC50 [nM]
COc1cncc(C(=O)NC23CC(NC(=O)COc4ccc(Cl)c(F)c4)(C2)C3)c1 [Compound 790, N-{3-[2-(4-chloro-3-fluorophenoxy)acetamido]bicyclo[1.1.1]pentan-1-yl}-5-methoxypyridine-3-carboxamide] | 50 to 250
CC(C)c1oncc1C(=O)NC12CC(NC(=O)COc3ccc(Cl)c(F)c3)(C1)C2 [Compound 855, N-{3-[2-(4-chloro-3-fluorophenoxy)acetamido]bicyclo[1.1.1]pentan-1-yl}-5-(propan-2-yl)-1,2-oxazole-4-carboxamide] | > 2000
O=C(COc1ccc(Cl)c(F)c1)NC12CC(NC(=O)c3ccc[n+]([O-])c3)(C1)C2 [Compound 402, N-{3-[2-(4-chloro-3-fluorophenoxy)acetamido]bicyclo[1.1.1]pentan-1-yl}-1-oxo-1λ^5-pyridine-3-carboxamide] | > 2000
O=C(COc1ccc(Cl)c(F)c1)NC12CCC(NC(=O)c3cccc(CO)n3)(CC1)CC2O (stereo not drawn) [Compound 945, N-{4-[2-(4-chloro-3-fluorophenoxy)acetamido]-3-hydroxybicyclo[2.2.2]octan-1-yl}-6-(hydroxymethyl)pyridine-2-carboxamide] | > 2000
Cc1cnc(C(=O)NC23CC(NC(=O)COc4ccc(C(F)(F)F)nc4)(C2)C3)cn1 [Compound 162, 5-methyl-N-[3-(2-{[6-(trifluoromethyl)pyridin-3-yl]oxy}acetamido)bicyclo[1.1.1]pentan-1-yl]pyrazine-2-carboxamide] | > 2000
O=C(COc1ccc(Cl)c(F)c1)NC12CC(NC(=O)c3cc(N4CCOCC4)ccn3)(C1)C2 [Compound 180, N-{3-[2-(4-chloro-3-fluorophenoxy)acetamido]bicyclo[1.1.1]pentan-1-yl}-4-(morpholin-4-yl)pyridine-2-carboxamide] | 1000 to 2000
O=C(COc1ccc(Cl)c(F)c1)NC12CC(NC(=O)c3cnc4ccccc4n3)(C1)C2 [Compound 482, N-{3-[2-(4-chloro-3-fluorophenoxy)acetamido]bicyclo[1.1.1]pentan-1-yl}quinoxaline-2-carboxamide] | < 50
COc1ccccc1C(=O)NC12CC(NC(=O)COc3ccc(Cl)c(F)c3)(C1)C2 [Compound 529, N-{3-[2-(4-chloro-3-fluorophenoxy)acetamido]bicyclo[1.1.1]pentan-1-yl}-2-methoxybenzamide] | > 2000
O=C(COc1ccc(Cl)c(F)c1)NC12CC(NC(=O)c3ccc(C(F)(F)F)nc3)(C1)C2 [Compound 203, N-{3-[2-(4-chloro-3-fluorophenoxy)acetamido]bicyclo[1.1.1]pentan-1-yl}-6-(trifluoromethyl)pyridine-3-carboxamide] | 1000 to 2000
O=C(COc1ccc(Cl)c(F)c1)NC12CCC(NC(=O)c3ccno3)(CC1)C(O)C2 (stereo not drawn) [Compound 215, N-{4-[2-(4-chloro-3-fluorophenoxy)acetamido]-2-hydroxybicyclo[2.2.2]octan-1-yl}-1,2-oxazole-5-carboxamide] | 50 to 250
O=C(COc1ccc(Cl)c(F)c1)NC12CCC(NC(=O)c3cnon3)(CC1)CC2O (stereo not drawn) [Compound 634, N-{4-[2-(4-chloro-3-fluorophenoxy)acetamido]-3-hydroxybicyclo[2.2.2]octan-1-yl}-1,2,5-oxadiazole-3-carboxamide] | > 2000
CCn1nc(C)cc1C(=O)NC12CCC(NC(=O)COc3ccc(Cl)c(F)c3)(CC1)C(O)C2 (stereo not drawn) [Compound 603, N-{4-[2-(4-chloro-3-fluorophenoxy)acetamido]-3-hydroxybicyclo[2.2.2]octan-1-yl}-1-ethyl-3-methyl-1H-pyrazole-5-carboxamide] | 250 to 1000
CCc1ccnc(C(=O)NC23CCC(NC(=O)COc4ccc(Cl)c(F)c4)(CC2)C(O)C3)c1 (stereo not drawn) [Compound 918, N-{4-[2-(4-chloro-3-fluorophenoxy)acetamido]-3-hydroxybicyclo[2.2.2]octan-1-yl}-4-ethylpyridine-2-carboxamide] | 250 to 1000
O=C(COc1ccc(Cl)c(F)c1)NC12CCC(NS(=O)(=O)c3ccc(C(F)(F)F)cc3)(CC1)[C@@H](O)C2 [Compound 663, 2-(4-chloro-3-fluorophenoxy)-N-[(3S)-3-hydroxy-4-{[4-(trifluoromethyl)benzene-1-sulfonyl]amino}bicyclo[2.2.2]octan-1-yl]acetamide] | 50 to 250
COCc1nc(C(=O)NC23CCC(NC(=O)COc4ccc(Cl)c(F)c4)(CC2)C(O)C3)cs1 (stereo not drawn) [Compound 523, N-{4-[2-(4-chloro-3-fluorophenoxy)acetamido]-3-hydroxybicyclo[2.2.2]octan-1-yl}-2-(methoxymethyl)-1,3-thiazole-4-carboxamide] | 50 to 250
O=C(COc1ccc(Cl)c(F)c1)NC12CC(NC(=O)c3ncc4ccccc4n3)(C1)C2 [Compound 749, N-{3-[2-(4-chloro-3-fluorophenoxy)acetamido]bicyclo[1.1.1]pentan-1-yl}quinazoline-2-carboxamide] | 50 to 250
COCCCc1cnc(C(=O)NC23CC(NC(=O)COc4ccc(Cl)c(F)c4)(C2)C3)cn1 [Compound 172, N-{3-[2-(4-chloro-3-fluorophenoxy)acetamido]bicyclo[1.1.1]pentan-1-yl}-5-(3-methoxypropyl)pyrazine-2-carboxamide] | 250 to 1000
CCc1ccnc(C(=O)NC23CC(NC(=O)COc4ccc(Cl)c(F)c4)(C2)C3)c1 [Compound 197, N-{3-[2-(4-chloro-3-fluorophenoxy)acetamido]bicyclo[1.1.1]pentan-1-yl}-4-ethylpyridine-2-carboxamide] | 50 to 250
COc1cccc(C(=O)NC23CC(NC(=O)COc4ccc(Cl)c(F)c4)(C2)C3)c1 [Compound 301, N-{3-[2-(4-chloro-3-fluorophenoxy)acetamido]bicyclo[1.1.1]pentan-1-yl}-3-methoxybenzamide] | 250 to 1000
O=C(COc1ccc(Cl)c(F)c1)NC12CC(NC(=O)c3csc(-c4ccccc4)n3)(C1)C2 [Compound 339, N-{3-[2-(4-chloro-3-fluorophenoxy)acetamido]bicyclo[1.1.1]pentan-1-yl}-2-phenyl-1,3-thiazole-4-carboxamide] | < 50
CC(C)(C)c1cc(C(=O)NC23CCC(NC(=O)COc4ccc(Cl)c(F)c4)(CC2)C(O)C3)on1 (stereo not drawn) [Compound 353, 3-tert-butyl-N-{4-[2-(4-chloro-3-fluorophenoxy)acetamido]-3-hydroxybicyclo[2.2.2]octan-1-yl}-1,2-oxazole-5-carboxamide] | 50 to 250
CC(C)(O)CCc1ccnc(C(=O)NC23CC(NC(=O)COc4ccc(Cl)c(Cl)c4)(C2)C3)c1 [Compound 433, N-{3-[2-(3,4-dichlorophenoxy)acetamido]bicyclo[1.1.1]pentan-1-yl}-4-(3-hydroxy-3-methylbutyl)pyridine-2-carboxamide] | > 2000
O=C(COc1ccc(Cl)c(F)c1)NC12CC(NC(=O)c3cc(NC4CC4)ccn3)(C1)C2 [Compound 390, N-{3-[2-(4-chloro-3-fluorophenoxy)acetamido]bicyclo[1.1.1]pentan-1-yl}-4-(cyclopropylamino)pyridine-2-carboxamide] | 1000 to 2000
O=C(COc1ccc(Cl)c(F)c1)NC12CC(NC(=O)c3cnc4ccccn34)(C1)C2 [Compound 258, N-{3-[2-(4-chloro-3-fluorophenoxy)acetamido]bicyclo[1.1.1]pentan-1-yl}imidazo[1,2-a]pyridine-3-carboxamide] | 250 to 1000
